From patent US8003595B2, “Amino acid sequences facilitating penetration of a substance of interest into cells and/or cell nuclei” (Cellectis, priority 2000, dated 2011)
Marks after values point to notes of the source that are not given here.

What was measured:
Type in all cases: cell-based, human
[1] = system: H1299 cells; test: Growth inhibition by peptide-cytochrome C conjugates (MTT)
Procedure: (§1) H1299 or HT29 cells (3×10^4 cells/well) are cultivated in 96-well plates for 48 hours at 37° C. in the complete culture medium RPMI with decreasing concentrations (200-3 μg/ml) of natural cytochrome C or cytochrome C conjugated with peptides added, and the culture is continued for 48 hours.
(§2) Table 25 gives the inhibition of growth of the cells by the […].

[2] = system: HT29 cells; test: as above
Procedure: as §1, §2

[3] = system: H1299 cells; test: Penetration of peptide-cytochrome C conjugates (microscopy); design: key: +++: intense; ++: positive; +: slightly positive; −: negative; conditions: 4 hours
Procedure: The penetration of the peptide-cytochrome C conjugates is evaluated with some conjugates prepared with peptides having a biotin on the N-terminal side. H1299 cells are cultivated in the presence of the different (biotinylated) peptide-cytochrome C conjugates at decreasing concentrations (100 to 25 μg/ml) in the culture medium for 4 hours at 37° C. At the end of the culture, the cells are washed three times with PBS, then fixed 15 minutes in ethanol at −20°. The penetration of the peptide-biotin-cytochrome C conjugate is evaluated after incubation for 60 minutes with some avidin coupled with peroxidase. The cells are then washed with PBS, and the activity of the peroxidase is indicated by diaminobenzidine in the presence of H2O2.
The penetration dependent on the concentration of conjugates in the culture medium is evaluated under the microscope by the intensity of the coloration expressed by crosses. Table 24 indicates the penetration of the peptide-cytochrome C conjugates in the cells.

[4] = system: HeLa cells; test: Penetration of peroxidase transported by peptide-IgG anti-PO transporter; conditions: via the transporter [peptide-IgG anti-PO]
Procedure: Two mg of specific monoclonal IgG antibody of peroxidase or their fragment F(ab′)2 in 1 ml of potassium phosphate buffer 0.1 M, pH 7.4 are added to 110 μg of SMCC [succinimidyl 4-(N-maleimidomethyl)cyclohexane-1-carboxylate] in 11 μl of dimethylsulfoxide. The solution is incubated for 45 minutes at laboratory temperature. The excess reagent is eliminated by centrifugation on ultrafiltration membranes (cutoff threshold =10,000 Da, Vivascience), followed by three washings in sodium phosphate buffer 10 mM, pH 7 containing 0.5 M of NaCl and 5 mM of EDTA.
The peptide is then coupled in a molar ratio of 6 peptides to 1 IgG or 1 F(ab′)2 in the sodium phosphate buffer 10 mM, pH 7, containing 0.5 M of NaCl and 5 mM of EDTA for three hours at laboratory temperature. Then, the excess uncoupled peptide is totally eliminated by centrifugation on ultrafiltration membranes, as in the preceding step. These transporters [peptide-IgG anti-PO] are added to the peroxidase or the biotinylated peroxidase in some 0.5 M NaCl buffer. The solution is incubated for 1 hour at laboratory temperature. The molar ratio of this reaction is 2 PO/1 IgG or F(ab′)2. […]
To measure the quantity of PO internalized, the cells are trypsinized, transferred into microtubes and counted. […]

| Molecule | % inhibition of growth ([1]; 3 μg/ml) [%] | % inhibition of growth ([1]; 6 μg/ml) [%] | % inhibition of growth ([1]; 12.5 μg/ml) [%] | % inhibition of growth ([1]; 25 μg/ml) [%] | % inhibition of growth ([1]; 50 μg/ml) [%] | % inhibition of growth ([1]; 100 μg/ml) | % inhibition of growth ([2]; 12.5 μg/ml) [%] | % inhibition of growth ([2]; 25 μg/ml) [%] | % inhibition of growth ([2]; 50 μg/ml) [%] | % inhibition of growth ([2]; 100 μg/ml) [%] | % inhibition of growth ([2]; 200 μg/ml) | penetration, intensity of the coloration ([3]; 25 μg/ml) | penetration, intensity of the coloration ([3]; 50 μg/ml) | penetration, intensity of the coloration ([3]; 100 μg/ml) | Quantity of molecules internalized [4] [pg/10^4 cells] |
| --- | --- | --- | --- | --- | --- | --- | --- | --- | --- | --- | --- | --- | --- | --- | --- |
| Natural cytochrome C: hemoprotein, single polypeptide chain of 104 amino acids | 0 | 0 | 0 | 0 | 0 | 0* % | 0 | 0 | 10 | 19 | 12* % | − | − | −* |  |
| Peroxidase (PO): peroxidase transported by the transporter [peptide-IgG anti-PO] (protein) QLTPTFYDNSCPNVSNIVRDTIVNELRSDPRIAASILRLHFHDCFVNGCDASILLDNTTSFRTEKDAFGNANSARGFPVIDRMKAAVESACPRTVSCADLLTIAAQQSVTLAGGPSWRVPLGRRDSLQAFLDLANANLPAPFFTLPQLKDSFRNVGLNRSSDLVALSGGHTFGKNQCRFIMDRLYNFSNTGLPDPTLNTTYLQTLRGLCPLNGNLSALVDFDLRTPTIFDNKYYVNLEEQKGLIQSDQELFSSPNATDTIPLVRSFANSTQTFFNAFVEAMDRMGNITPLTGTQGQIRLNCRVVNSNS |  |  |  |  |  |  |  |  |  |  |  |  |  |  | 2100 |
| Biotinylated PO: biotinylated peroxidase transported by the transporter [peptide-IgG anti-PO] (protein) QLTPTFYDNSCPNVSNIVRDTIVNELRSDPRIAASILRLHFHDCFVNGCDASILLDNTTSFRTEKDAFGNANSARGFPVIDRMKAAVESACPRTVSCADLLTIAAQQSVTLAGGPSWRVPLGRRDSLQAFLDLANANLPAPFFTLPQLKDSFRNVGLNRSSDLVALSGGHTFGKNQCRFIMDRLYNFSNTGLPDPTLNTTYLQTLRGLCPLNGNLSALVDFDLRTPTIFDNKYYVNLEEQKGLIQSDQELFSSPNATDTIPLVRSFANSTQTFFNAFVEAMDRMGNITPLTGTQGQIRLNCRVVNSNS |  |  |  |  |  |  |  |  |  |  |  |  |  |  | 1700 |
